System: MV4-11 tumor xenografts
Assay: MV4-11 human tumor xenograft regression model in nude mice
Assay type: in vivo
Method: Female athymic nude mice (CD-1, nu/nu, 9-10 weeks old) were obtained from Charles River Laboratories (Wilmington, Mass.) and were maintained according to NIH standards. All mice were group housed (5 mice/cage) under clean-room conditions in sterile micro-isolator cages on a 12-hour light/dark cycle in a room maintained at 21-22° C. and 40-50% humidity. Mice were fed irradiated standard rodent diet and water ad libitum. All animals were housed in a Laboratory Animal Medicine facility that is fully accredited by the American Association for Assessment and Accreditation of Laboratory Animal Care (AAALAC). […]
The time course of the inhibitory effects of FLT3 inhibitor compounds on the growth of MV4-11 tumors is illustrated in FIG. 1. […] Percent inhibition (% I) of tumor growth was calculated versus tumor growth in the vehicle-treated Control group on the last study day. Statistical significance versus Control was determined by Analysis of Variance (ANOVA) followed by Dunnett's t-test: *p<0.05; **p<0.01.
(See FIG. 2). […] Percent Inhibition was calculated versus the mean tumor weight in the vehicle-treated control group. Statistical significance versus Control was determined by ANOVA followed by Dunnett's t-test: **p<0.01. […]

Structure (SMILES): Cn1cncc1C(N)(c1ccc(Cl)cc1)c1ccc2c(c1)c(-c1cccc(Cl)c1)cc(=O)n2C (single isomer, unassigned; (+)) [Tipifarnib, (+)-6-[amino(4-chlorophenyl)(1-methyl-1H-imidazol-5-yl)methyl]-4-(3-chlorophenyl)-1-methyl-2(1H)-quinolinone]
- inhibition of tumor volume vs vehicle-treated control group (Day 16, Compound D 25 mg/kg bid, Tipifarnib 50 mg/kg, alone or in combination): ineffective
- tumor growth vs Vehicle-treated group (Tipifarnib 50 mg/kg single agent, nine days): ineffective

— patent US20060281700A1, “SYNERGISTIC MODULATION OF FLT3 KINASE USING AMINOPYRIMIDINES KINASE MODULATORS” (priority 2005, published 2006)
